For series [1] the following is noted: ester bond.
A further series concerns B16 4A5 cells. In words: B16 4A5 cell viability, MTS assay. It is filed as cell-based, mouse. Particulars: SDS 0.05%, 72 h, compared to untreated cells. As for the experimental part:
B16 4A5 cells were seeded in 24-well plates at 20,000 cells/well, 24 h before the beginning of the treatment with test compounds at 5 concentrations, in triplicates (n=3). […] Additionally, DMSO at 0.1%, used for solubilization of the test compounds, was tested in parallel. The treatments were performed in culture medium containing only 1% of FBS. […] The effects of the compounds on B16 4A5 viability was assessed. To this purpose, cells were incubated during 72 h with 5 concentrations of the compounds, were left untreated, treated with SDS or with DMSO 0.1%.

For the next series, the target named is SIK (h) / SIK1 (Homo sapiens (Human), UniProt P57059). In words: SIK1 kinase activity, Eurofins KinaseProfiler ([γ-33P]-ATP filter assay). The format is biochemical. How it is done: (§1) SIK1, 2 and 3 kinase activity was assessed using a Eurofins Cerep S.A. (‘Eurofins’) KinaseProfiler. All compounds were prepared to 50× final assay concentration in 100% DMSO. This working stock of the compound was added to the assay well as the first component in the reaction, followed by the remaining components as detailed in the general assay protocols below. In the standard KinaseProfiler service, there is no pre-incubation step between the compound and the kinase prior to initiation of the reaction. The positive control well contains all components of the reaction, except the compound of interest; however, DMSO (at a final concentration of 2%) is included in these wells to control for solvent effects. The blank wells contain all components of the reaction, with a reference inhibitor replacing the compound of interest. This abolishes kinase activity and establishes the base-line (0% kinase activity remaining).
SIK (h) was incubated with 8 mM MOPS pH 7.0, 0.2 mM EDTA, 100 μM […], 10 mM Magnesium acetate and [γ-33P]-ATP (specific activity and concentration as required). The reaction was initiated by the addition of the Mg/ATP mix. After incubation for 40 minutes at room temperature, the reaction was stopped by the addition of phosphoric acid to a concentration of 0.5%, 10 μL of the reaction was then spotted onto a P30 filtermat and washed four times for 4 minutes in 0.425% phosphoric acid and once in methanol prior to drying and scintillation counting.

The target of the next series is SIK3 (h) (Homo sapiens (Human), UniProt Q9Y2K2). Put plainly: SIK3 kinase activity, Eurofins KinaseProfiler ([γ-33P]-ATP filter assay). It is filed as biochemical. As for the experimental part:
as §1
SIK3 (h) was incubated with 8 mM MOPS pH 7.0, 0.2 mM EDTA, 100 μM […], 10 mM Magnesium acetate and [γ-33P-ATP](specific activity and concentration as required). The reaction was initiated by the addition of the Mg/ATP mix. After incubation for 40 minutes at room temperature, the reaction is stopped by the addition of phosphoric acid to a concentration of 0.5%, […] of the reaction was then spotted onto a P30 filtermat and washed four times for 4 minutes in 0.425% phosphoric acid and once in methanol prior to drying and scintillation counting.

The target in another series is SIK2 (h) (Homo sapiens (Human), UniProt Q9H0K1). Put plainly: SIK2 kinase activity, Eurofins KinaseProfiler ([γ-33P]-ATP filter assay). The format is biochemical. How it is done:
as §1
SIK2 (h) was incubated with 8 mM MOPS pH 7.0, 0.2 mM EDTA, 100 μM […], 10 mM Magnesium acetate and [γ-33P-ATP](specific activity and concentration as required). The reaction was initiated by the addition of the Mg/ATP mix. After incubation for 40 minutes at room temperature, the reaction was stopped by the addition of phosphoric acid to a concentration of 0.5%, 10 μL of the reaction was then spotted onto a P30 filtermat and washed four times for 4 minutes in 0.425% phosphoric acid and once in methanol prior to drying and scintillation counting.

The target in a further series is SIK1 (Homo sapiens (Human), UniProt P57059). In words: cell-based.
Setting [2] is: Table 5, macrocycle precursors, read-out: IC50 nM SIK2.
The mark [3] stands for this setting: Table 6, macrocycles, read-out: IC50 nM SIK2.

This is an account of results in patent publication US20250340556A1, “PYRIMIDOPYRIMIDONE COMPOUNDS AND METHODS OF USE THEREOF” (Soltego, Inc., priority 2022, published 2025).

Where two headings read alike, the source gives them in different places.

Chain of SIK1 (P57059 whole entry): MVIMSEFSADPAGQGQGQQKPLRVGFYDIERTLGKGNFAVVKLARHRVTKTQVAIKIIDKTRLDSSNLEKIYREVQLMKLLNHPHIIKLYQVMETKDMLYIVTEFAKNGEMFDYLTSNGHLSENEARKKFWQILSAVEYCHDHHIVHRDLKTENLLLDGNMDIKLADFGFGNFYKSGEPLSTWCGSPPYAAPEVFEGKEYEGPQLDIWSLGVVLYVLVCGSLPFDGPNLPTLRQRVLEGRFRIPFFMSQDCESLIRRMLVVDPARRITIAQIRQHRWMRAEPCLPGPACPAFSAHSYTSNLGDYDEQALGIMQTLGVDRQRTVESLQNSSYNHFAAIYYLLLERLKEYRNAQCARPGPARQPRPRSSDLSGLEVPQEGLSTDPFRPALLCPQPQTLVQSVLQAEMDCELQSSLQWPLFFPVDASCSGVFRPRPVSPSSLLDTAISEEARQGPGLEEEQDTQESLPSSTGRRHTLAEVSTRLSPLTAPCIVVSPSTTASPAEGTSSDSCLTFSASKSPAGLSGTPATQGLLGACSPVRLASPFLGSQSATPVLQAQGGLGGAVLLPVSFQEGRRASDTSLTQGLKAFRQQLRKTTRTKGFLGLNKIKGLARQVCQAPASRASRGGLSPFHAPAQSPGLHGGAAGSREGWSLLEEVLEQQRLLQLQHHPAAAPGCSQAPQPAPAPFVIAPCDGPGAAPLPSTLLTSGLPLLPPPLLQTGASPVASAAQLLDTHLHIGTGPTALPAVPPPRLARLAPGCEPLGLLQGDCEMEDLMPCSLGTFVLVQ

`COc1cc(F)c2cc1Nc1ncc3c(n1)N(CCCC(=O)OC2)C(=O)N(c1c(C)cccc1C)C3` displayed a ring closure, isolated yield in series [1] (from COc1cc(F)c(CO)cc1Nc1ncc2c(n1)N(CCCC(=O)O)C(=O)N(c1c(C)cccc1C)C2, 14-membered ring, DCC/DMAP/3A MS, DCM/DMF, 6.89 mM, 25.0 °C, 16.0 h) of 57%.

Compound `COc1cc(N2CCN(C)CC2)c2cc1Nc1ncc3c(n1)N(CCCC(=O)OC2)C(=O)N(c1c(C)cccc1C)C3` registered a ring closure, isolated yield in series [1] (from COc1cc(N2CCN(C)CC2)c(CO)cc1Nc1ncc2c(n1)N(CCCC(=O)O)C(=O)N(c1c(C)cccc1C)C2, 14-membered ring, DCC/DMAP/3A MS, DCM/DMF, 6.69 mM, 25.0 °C, 16.0 h) of 6%.

With `CCCCCCCCCCCCOS(=O)(=O)[O-].[Na+]` [SDS, reference compound], in the series on B16 4A5 cells, the viability of cells entry was “strongly and significantly diminished”.

Broadly, the IC50 is the midpoint of a concentration-inhibition curve. As to `COC(=O)CCCN1C(=O)N(c2c(C)cccc2C)Cc2cnc(Nc3ccc(N4CCN(C)CC4)c(CO)c3)nc21` [SLT-019], the IC50 on SIK (h) / SIK1 (Table 5, macrocycle precursors) stood at 2 nM; at SIK3 (h) (Table 5, macrocycle precursors), 8 nM; at SIK2 (h) (setting [2]), 3 nM.

As for `Cc1cccc(C)c1N1Cc2cnc(Nc3ccc(N4CCN(C)CC4)c(CO)c3)nc2N(CCC(=O)O)C1=O` [SLT-020], the 50% inhibitory concentration (IC50) at SIK (h) / SIK1 (Table 5, macrocycle precursors) was found to be 5 nM; on SIK3 (h) (Table 5, macrocycle precursors), 43 nM; on SIK2 (h) (setting [2]), 10 nM.

In the case of `Cc1cccc(C)c1N1Cc2cnc(Nc3ccc(N4CCN(C)CC4)c(CO)c3)nc2N(CCCC(=O)O)C1=O` [SLT-025], the IC50 against SIK (h) / SIK1 (Table 5, macrocycle precursors) worked out at 3 nM; against SIK3 (h) (Table 5, macrocycle precursors), 21 nM; at SIK2 (h) (setting [2]) it was 6 nM.

Usually EC50 stands for the midpoint of the concentration-response curve. Read a low EC50 as higher potency in that assay. In the case of `Cc1cccc(C)c1N1Cc2cnc(Nc3ccc(N4CCN(C)CC4)c(CO)c3)nc2N(CCCCC(=O)O)C1=O` [SLT-027], the IC50 on SIK (h) / SIK1 (Table 5, macrocycle precursors) came to 2 nM; at SIK3 (h) (Table 5, macrocycle precursors), 21 nM; on SIK2 (h) (setting [2]) it was 5 nM. In addition, at SIK1, the EC50 came out at 408 nM.

At SIK1, `Cc1cccc(C)c1N1Cc2cnc3nc2N(CCCCC(=O)OCc2cc(ccc2N2CCN(C)CC2)N3)C1=O` [SLT-033] gave a concentration giving a half-maximal response (EC50) of 6.08 nM. The ring closure, isolated yield in series [1] (from Cc1cccc(C)c1N1Cc2cnc(Nc3ccc(N4CCN(C)CC4)c(CO)c3)nc2N(CCCCC(=O)O)C1=O, 15-membered ring, DCC/DMAP/3A MS, DCM/DMF, 7.69 mM, 25.0 °C) is 14%. For the same compound, the IC50 at SIK2 (h) (setting [3]) stood at 0.8 nM.

The compound `Cc1cccc(C)c1N1Cc2cnc3nc2N(CCCCCOC(=O)c2cc(ccc2N2CCN(C)CC2)N3)C1=O` [SLT-038] registered a concentration giving a half-maximal response (EC50) on SIK1 of 4.37 nM. In addition, the ring closure, isolated yield in series [1] (from Cc1cccc(C)c1N1Cc2cnc(Nc3ccc(N4CCN(C)CC4)c(C(=O)O)c3)nc2N(CCCCCO)C1=O, 15-membered ring, 2,4,6-trichlorobenzoyl chloride/TEA, DMAP, toluene/DMF, 5.0 mM, 110.0 °C, 16.0 h) stood at 6%. The IC50 on SIK2 (h) (setting [3]) is 1 nM.

`Cc1cccc(C)c1N1Cc2cnc3nc2N(CCCOC(=O)c2cc(ccc2N2CCN(C)CC2)N3)C1=O` [SLT-041] showed a concentration giving a half-maximal response (EC50) on SIK1 of 10.5 nM. The ring closure, isolated yield in series [1] (from Cc1cccc(C)c1N1Cc2cnc(Nc3ccc(N4CCN(C)CC4)c(C(=O)O)c3)nc2N(CCCO)C1=O, 13-membered ring, EDC.HCl/HOBt/DMAP/3A MS, DCM, 7.99 mM, 50.0 °C, 16.0 h) stood at 30%.

For `COc1cc(Br)c2cc1Nc1ncc3c(n1)N(CCCC(=O)OC2)C(=O)N(c1c(C)cccc1C)C3` [SLT-058], the 50% inhibitory concentration (IC50) at SIK (h) / SIK1 (Table 6, macrocycles) was 26 nM; on SIK3 (h) (Table 6, macrocycles) it was 339 nM; at SIK2 (h) (setting [3]) it was 201 nM. Further, the ring closure, isolated yield in series [1] (from COc1cc(Br)c(CO)cc1Nc1ncc2c(n1)N(CCCC(=O)O)C(=O)N(c1c(C)cccc1C)C2, 14-membered ring, DCC/DMAP/3A MS, DCM/DMF, 4.96 mM, 25.0 °C, 16.0 h) worked out at 20%.

For the compound `Cc1cccc(C)c1N1Cc2cnc3nc2N(CCCCOC(=O)Cc2cc(ccc2N2CCN(C)CC2)N3)C1=O` [SLT-059], the IC50 on SIK (h) / SIK1 (Table 6, macrocycles) is 286 nM; against SIK2 (h), above 500 nM; on SIK2 (h) (setting [3]), 250 nM. In series [1] (from Cc1cccc(C)c1N1Cc2cnc(Nc3ccc(N4CCN(C)CC4)c(CC(=O)O)c3)nc2N(CCCCO)C1=O, 15-membered ring, 2,4,6-trichlorobenzoyl chloride/TEA, DMAP, toluene/DMF, 5.0 mM, 110.0 °C, 16.0 h), this compound displayed a ring closure, isolated yield of 13%.

With `Cc1cccc(C)c1N1Cc2cnc3nc2N(C/C=C/CC(=O)OCc2cc(ccc2N2CCN(C)CC2)N3)C1=O` [SLT-061], the IC50 on SIK2 (h) (setting [3]) came out at 2 nM.

As to `Cc1cccc(C)c1N1Cc2cnc3nc2N(C/C=C\CC(=O)OCc2cc(ccc2N2CCN(C)CC2)N3)C1=O` [SLT-062], on SIK2 (h), half-maximal inhibition (IC50) was put at 0.8 nM.

`Cc1cccc(C)c1N1Cc2cnc3nc2N(C/C=C/COC(=O)Cc2cc(ccc2N2CCN(C)CC2)N3)C1=O` [SLT-068]: on SIK2 (h) (setting [3]), the IC50 was determined as 17 nM.

In the case of `Cc1cccc(C)c1N1Cc2cnc3nc2N(CCCCOC(=O)C(C)c2cc(ccc2N2CCN(C)CC2)N3)C1=O` (stereo not drawn) [SLT-070], the 50% inhibitory concentration (IC50) at SIK2 (h) (setting [3]) worked out at 2 nM.

In the case of `Cc1cccc(C)c1N1Cc2cnc3nc2N(CCCOC(=O)C(C)c2cc(ccc2N2CCN(C)CC2)N3)C1=O` (stereo not drawn) [SLT-071], the IC50 on SIK2 (h) (setting [3]) came out at 3 nM.

At SIK2 (h), `Cc1cccc(C)c1N1Cc2cnc3nc2N(C/C=C\C(=O)OCc2cc(ccc2N2CCN(C)CC2)N3)C1=O` [SLT-073] registered an IC50 of 0.7 nM.

For `Cc1cccc(C)c1N1Cc2cnc3nc2N(C/C=C/CCOC(=O)c2cc(ccc2N2CCN(C)CC2)N3)C1=O` [SLT-079], the concentration for half-maximal inhibition (IC50) on SIK2 (h) (setting [3]) amounted to 1 nM.
